We go through 13 compounds from PubChem BioAssay (NCI).

Some test systems named below: SK-MEL-5 melanoma; RPMI-8226 leukemia; MDA-MB-435; HS 578T breast; SK-OV-3 ovarian; NCI-H226 lung; KM12 colon; SN12C renal; SF-268 CNS; 786-0 renal.
Common to all, as to experiment: growth of human tumour cells (NCI), 48 h

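1) Cells in 96-well plates. 2) Compound, 48 h, 5 concentrations. 3) Linear interpolation between surrounding doses. 4) Unreached endpoint = highest concentration. At the GI50, growth is halved. The concentration for full growth arrest is given as TGI.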

Regarding `COC(=O)C1=C(O)C(C(=O)OC)[C@]2(O)[C@H](C(=O)OC)[C@H]1C[C@@H](c1cccc(OC)c1)[C@H]2C(=O)OC` (stereo partly specified), the TGI was more than 100 µM with SK-MEL-5 melanoma; more than 100 µM in the test on RPMI-8226 leukemia; 55.2 µM in the test on MDA-MB-435; 55 µM in the test on HS 578T breast; 66.6 µM in the test with SK-OV-3 ovarian; more than 100 µM in the test on NCI-H226 lung. The TGI in the test on KM12 colon was 69.8 µM; in the test with SN12C renal, 65.7 µM; in the test on SF-268 CNS it was more than 100 µM; with 786-0 renal it was 56.1 µM.

In the case of `CC(=O)N1CC(C)(C)c2c1cc(C)c(O)c2C`, the TGI with SK-MEL-5 melanoma, in the test on RPMI-8226 leukemia, in the test on MDA-MB-435, in the test with HS 578T breast, in the test on SK-OV-3 ovarian and in the test with NCI-H226 lung was more than 100 µM each time. In addition, the TGI in the test on KM12 colon, with SN12C renal, in the test on SF-268 CNS and in the test on 786-0 renal was more than 100 µM throughout.

Consider `O=C1c2cc([N+](=O)[O-])cnc2S(=O)(=O)N1c1ccc(Br)cc1`, for which the TGI in the test with SK-MEL-5 melanoma, in the test with RPMI-8226 leukemia, with MDA-MB-435, in the test with HS 578T breast, in the test on SK-OV-3 ovarian and in the test with NCI-H226 lung was more than 100 µM throughout. For the same compound, the TGI with KM12 colon, in the test on SN12C renal, with SF-268 CNS and with 786-0 renal was more than 100 µM each time.

With `O=C(O)C(F)(F)C(F)(F)C(F)(F)C(F)(F)C(=O)O`, the TGI with SK-MEL-5 melanoma, with RPMI-8226 leukemia, in the test with MDA-MB-435, with HS 578T breast, with SK-OV-3 ovarian and with NCI-H226 lung was more than 100 µM throughout. For the same compound, the TGI in the test on KM12 colon, in the test with SN12C renal, in the test on SF-268 CNS and in the test on 786-0 renal was more than 100 µM each time.

Regarding `CCn1nc(-c2ccccc2)c2c1N(C)c1ccccc1-n1c(-c3ccccc3)nnc1-2`, the TGI was 21.2 µM with SK-MEL-5 melanoma; more than 100 µM in the test on RPMI-8226 leukemia; more than 100 µM with MDA-MB-435; 52.4 µM in the test on HS 578T breast; 38.5 µM with SK-OV-3 ovarian; 52.7 µM in the test on NCI-H226 lung. Further, the TGI was 32.7 µM in the test on SN12C renal, 32.5 µM with SF-268 CNS and 30.6 µM in the test on 786-0 renal.

Turning to `COc1cc(C(=O)O[C@H](C(=O)NCCNC(=O)[C@@H](OC(=O)c2cc(OC)cc3c(C)cccc23)[C@]2(C)CO2)[C@]2(C)CO2)c2cccc(C)c2c1`, the GI50 was 0.0331 µM in the test with SK-MEL-5 melanoma; 0.282 µM with RPMI-8226 leukemia; 0.319 µM with HS 578T breast; 0.827 µM with SK-OV-3 ovarian; 0.66 µM with NCI-H226 lung; 0.0438 µM in the test on KM12 colon. The GI50 with SN12C renal was 0.0211 µM; in the test with SF-268 CNS, less than 0.01 µM. Also, the TGI in the test on SK-MEL-5 melanoma was 0.28 µM; with RPMI-8226 leukemia, 10.6 µM; in the test with MDA-MB-435 it was 0.696 µM; in the test on HS 578T breast, more than 100 µM; with SK-OV-3 ovarian, 9.74 µM; in the test on NCI-H226 lung, 2.11 µM. Also, the TGI stood at 0.278 µM in the test with KM12 colon, 0.263 µM with SN12C renal and 0.191 µM in the test on SF-268 CNS.

As for `CCN(CC)c1ccc2c(c1)Oc1ccc(N(C(C)=O)c3ccccc3)cc1C21OC(=O)c2ccccc21` (stereo unspecified), the TGI in the test on SK-MEL-5 melanoma, in the test with RPMI-8226 leukemia, with MDA-MB-435, in the test with HS 578T breast, with SK-OV-3 ovarian and in the test with NCI-H226 lung was more than 100 µM in each case. Besides, the TGI in the test on KM12 colon, in the test on SN12C renal, in the test on SF-268 CNS and in the test on 786-0 renal was more than 100 µM each time.

Regarding `O=C1OC(C2Cc3ccccc3C2=O)c2ccccc21` (stereo unspecified), the TGI in the test on SK-MEL-5 melanoma, in the test with RPMI-8226 leukemia, in the test with MDA-MB-435, with HS 578T breast, in the test with SK-OV-3 ovarian and in the test on NCI-H226 lung was more than 100 µM each time. The TGI in the test with KM12 colon, in the test with SN12C renal, in the test on SF-268 CNS and with 786-0 renal was more than 100 µM each time.

Turning to `CC(/C=N/N(C)C1=NCCCCN1)=N/N(C)C1=NCCCCN1`, the TGI in the test on SK-MEL-5 melanoma, with RPMI-8226 leukemia, in the test on MDA-MB-435, with HS 578T breast, with SK-OV-3 ovarian and with NCI-H226 lung was more than 100 µM throughout. The TGI in the test with KM12 colon, with SN12C renal, with SF-268 CNS and in the test with 786-0 renal was more than 100 µM each time.

As to `CC(=O)[C@H]1CC[C@H]2[C@@H]3CCC4=CC(=O)CC[C@]4(C)[C@H]3CC[C@]12C`, the TGI with SK-MEL-5 melanoma is 24.8 µM; in the test on RPMI-8226 leukemia it was 26.3 µM; in the test with MDA-MB-435 it was 39.3 µM; in the test with HS 578T breast, 19.7 µM; in the test with SK-OV-3 ovarian, 62.9 µM; in the test on NCI-H226 lung, 45 µM. The TGI in the test with KM12 colon came to 31.5 µM; in the test on SN12C renal it was 41.1 µM; in the test on SF-268 CNS it was 69.8 µM; with 786-0 renal it was 54.2 µM.

As to `CC(C)=NNc1cnnc2ccc([N+](=O)[O-])cc12`, the TGI with SK-MEL-5 melanoma, in the test on RPMI-8226 leukemia, in the test on MDA-MB-435, in the test with HS 578T breast, in the test with SK-OV-3 ovarian and in the test on NCI-H226 lung was more than 100 µM in each case. For the same compound, the TGI with KM12 colon, with SN12C renal, in the test with SF-268 CNS and in the test with 786-0 renal was more than 100 µM throughout.

Consider `O=C(O)CCC(C(=O)O)N1C(=O)c2ccccc2C1=O` (stereo unspecified), for which the TGI in the test with SK-MEL-5 melanoma, in the test with RPMI-8226 leukemia, with MDA-MB-435, in the test with HS 578T breast, in the test on SK-OV-3 ovarian and in the test on NCI-H226 lung was more than 100 µM in each case. Further, the TGI in the test with KM12 colon, in the test on SN12C renal, in the test with SF-268 CNS and in the test with 786-0 renal was more than 100 µM in each case.

`O=C1CSC(c2cccc(Cl)c2)N1c1c(O)c(Cl)cc(Br)c1Cl` (stereo unspecified): the TGI with SK-MEL-5 melanoma is more than 100 µM; in the test with RPMI-8226 leukemia, 39.4 µM; in the test on MDA-MB-435 it was 31.9 µM; with HS 578T breast, more than 100 µM; in the test with SK-OV-3 ovarian it was more than 100 µM; in the test with NCI-H226 lung, more than 100 µM. Besides, the TGI was more than 100 µM in the test on KM12 colon, more than 100 µM in the test on SN12C renal, more than 100 µM with SF-268 CNS and 71.7 µM in the test on 786-0 renal.
